# Experimental data as given in patent US7964531B2, “3-phenoxy-4-pyridazinol derivatives and herbicidal composition containing the same” (Mitsui Chemicals Agro, Inc., priority 2001, dated 2011).
# Assays:
# Type in all cases: in vivo
# Conditions in all cases: wettable powder applied 3 days after transplanting, judged after 25 days
# [1] = system: barnyardgrass (Echinochloa oryzicola Vasing.); test: Test Example 1: herbicidal effects, paddy-field pot test
# Description: (§1) A paddy soil was filled in 1/10,000 are pot, and seeds of barnyardgrass (Echinochloa oryzicola Vasing.), Scirpus joncoides and annual broad-leaved weeds (Lindernia spp., Rotala indica) which are awaken from dormancy were mixed at the surface layer of 1 cm. Also, tuber of Cyperus serotinus which is germinated was planted, and further seedlings of paddy-field rice at 2.2-leaf stage were transplanted, and they were grown under the flooded condition in a greenhouse. After 3 days from transplanting, a predetermined chemical dosage of the wettable powder prepared in accordance with Preparation example 1 was diluted in water, and the solution was applied to the pot and herbicidal effects and crop injury against transplanted paddy-field rice were judged after 25 days from the treatment. Also, 3-(2-allylphenoxy)-6-chloro-4-methoxypyridazine described in Chemical Pharmaceutical Bulletin, 1972, vol. 20, No. 10, pp. 2191-2203 was used as Comparative compound. Incidentally, herbicidal effects and crop injury against transplanted paddy-field rice were judged by the following judgment standard, and “-” in the table means no test was carried out.
# (§2) Judgment Standard • 0: Growth inhibition rate; 0 to 10% • 1: Growth inhibition rate; 11 to 30% • 2: Growth inhibition rate; 31 to 50% • 3: Growth inhibition rate; 51 to 70% • 4: Growth inhibition rate; 71 to 90% • 5: Growth inhibition rate; 91 to 100%.
# [2] = system: Cyperus serotinus; test: as above
# Description: as §1, §2
# [3] = system: annual broad-leaved weeds (Lindernia spp., Rotala indica); test: as above
# Description: as §1, §2
# [4] = system: Scirpus joncoides; test: as above
# Description: as §1, §2
# [5] = system: transplanted paddy-field rice; test: Test Example 1: crop injury against transplanted paddy-field rice
# Description: as §1, §2
Structure (SMILES),Herbicidal effects Barnyard grass ([1]; chemical dosage 10 g/a),Herbicidal effects Barnyard grass ([1]; chemical dosage 20 g/a),Herbicidal effects Cyperus serotinus ([2]; chemical dosage 10 g/a),Herbicidal effects Cyperus serotinus ([2]; chemical dosage 20 g/a),Herbicidal effects Broad leaf ([3]; chemical dosage 10 g/a),Herbicidal effects Broad leaf ([3]; chemical dosage 20 g/a),Herbicidal effects Scirpus joncoides ([4]; chemical dosage 10 g/a),Herbicidal effects Scirpus joncoides ([4]; chemical dosage 20 g/a),Crop injury against transplanted rice ([5]; chemical dosage 10 g/a),Crop injury against transplanted rice ([5]; chemical dosage 20 g/a),Herbicidal effects Barnyard grass ([1]; chemical dosage 12.5 g/a),Herbicidal effects Barnyard grass ([1]; chemical dosage 25 g/a),Herbicidal effects Cyperus serotinus ([2]; chemical dosage 12.5 g/a),Herbicidal effects Cyperus serotinus ([2]; chemical dosage 25 g/a),Herbicidal effects Broad leaf ([3]; chemical dosage 12.5 g/a),Herbicidal effects Broad leaf ([3]; chemical dosage 25 g/a),Herbicidal effects Scirpus joncoides ([4]; chemical dosage 12.5 g/a),Herbicidal effects Scirpus joncoides ([4]; chemical dosage 25 g/a),Crop injury against transplanted rice ([5]; chemical dosage 12.5 g/a),Crop injury against transplanted rice ([5]; chemical dosage 25 g/a)
CCCS(=O)(=O)Oc1cc(Cl)nnc1Oc1ccccc1C [Example 359],4 (Growth inhibition rate; 71 to 90%),5 (Growth inhibition rate; 91 to 100%),5 (Growth inhibition rate; 91 to 100%),5 (Growth inhibition rate; 91 to 100%),3 (Growth inhibition rate; 51 to 70%),5 (Growth inhibition rate; 91 to 100%),3 (Growth inhibition rate; 51 to 70%),4 (Growth inhibition rate; 71 to 90%),0 (Growth inhibition rate; 0 to 10%),0 (Growth inhibition rate; 0 to 10%),–,–,–,–,–,–,–,–,–,–
Oc1cc(Cl)nnc1Oc1cccc2occc12 [Example 183],1 (Growth inhibition rate; 11 to 30%),2 (Growth inhibition rate; 31 to 50%),5 (Growth inhibition rate; 91 to 100%),5 (Growth inhibition rate; 91 to 100%),5 (Growth inhibition rate; 91 to 100%),5 (Growth inhibition rate; 91 to 100%),5 (Growth inhibition rate; 91 to 100%),5 (Growth inhibition rate; 91 to 100%),0 (Growth inhibition rate; 0 to 10%),0 (Growth inhibition rate; 0 to 10%),–,–,–,–,–,–,–,–,–,–
CCc1cccc(CC)c1Oc1nnc(Cl)cc1O [Example 268],–,–,–,–,–,–,–,–,–,–,0 (Growth inhibition rate; 0 to 10%),1 (Growth inhibition rate; 11 to 30%),5 (Growth inhibition rate; 91 to 100%),5 (Growth inhibition rate; 91 to 100%),5 (Growth inhibition rate; 91 to 100%),5 (Growth inhibition rate; 91 to 100%),5 (Growth inhibition rate; 91 to 100%),5 (Growth inhibition rate; 91 to 100%),1 (Growth inhibition rate; 11 to 30%),1 (Growth inhibition rate; 11 to 30%)
Oc1cc(Cl)nnc1Oc1c(Cl)cccc1I [Example 241],1 (Growth inhibition rate; 11 to 30%),3 (Growth inhibition rate; 51 to 70%),5 (Growth inhibition rate; 91 to 100%),5 (Growth inhibition rate; 91 to 100%),5 (Growth inhibition rate; 91 to 100%),5 (Growth inhibition rate; 91 to 100%),3 (Growth inhibition rate; 51 to 70%),4 (Growth inhibition rate; 71 to 90%),0 (Growth inhibition rate; 0 to 10%),0 (Growth inhibition rate; 0 to 10%),–,–,–,–,–,–,–,–,–,–
CCCc1cccc(F)c1Oc1nnc(Cl)cc1O [Example 234],–,–,–,–,–,–,–,–,–,–,0 (Growth inhibition rate; 0 to 10%),0 (Growth inhibition rate; 0 to 10%),5 (Growth inhibition rate; 91 to 100%),5 (Growth inhibition rate; 91 to 100%),5 (Growth inhibition rate; 91 to 100%),5 (Growth inhibition rate; 91 to 100%),3 (Growth inhibition rate; 51 to 70%),4 (Growth inhibition rate; 71 to 90%),0 (Growth inhibition rate; 0 to 10%),0 (Growth inhibition rate; 0 to 10%)
Oc1cc(Cl)nnc1Oc1c(Br)ccc2c1CCC2 [Example 304],4 (Growth inhibition rate; 71 to 90%),4 (Growth inhibition rate; 71 to 90%),4 (Growth inhibition rate; 71 to 90%),5 (Growth inhibition rate; 91 to 100%),5 (Growth inhibition rate; 91 to 100%),5 (Growth inhibition rate; 91 to 100%),4 (Growth inhibition rate; 71 to 90%),5 (Growth inhibition rate; 91 to 100%),0 (Growth inhibition rate; 0 to 10%),0 (Growth inhibition rate; 0 to 10%),–,–,–,–,–,–,–,–,–,–
CC(C)Oc1ccccc1Oc1nnc(Cl)cc1O [Example 123],0 (Growth inhibition rate; 0 to 10%),1 (Growth inhibition rate; 11 to 30%),4 (Growth inhibition rate; 71 to 90%),5 (Growth inhibition rate; 91 to 100%),5 (Growth inhibition rate; 91 to 100%),5 (Growth inhibition rate; 91 to 100%),3 (Growth inhibition rate; 51 to 70%),4 (Growth inhibition rate; 71 to 90%),0 (Growth inhibition rate; 0 to 10%),0 (Growth inhibition rate; 0 to 10%),–,–,–,–,–,–,–,–,–,–
Cc1cccc(C(C)(C)C)c1Oc1nnc(Cl)cc1O [Example 22],–,–,–,–,–,–,–,–,–,–,1 (Growth inhibition rate; 11 to 30%),2 (Growth inhibition rate; 31 to 50%),3 (Growth inhibition rate; 51 to 70%),4 (Growth inhibition rate; 71 to 90%),5 (Growth inhibition rate; 91 to 100%),5 (Growth inhibition rate; 91 to 100%),2 (Growth inhibition rate; 31 to 50%),4 (Growth inhibition rate; 71 to 90%),1 (Growth inhibition rate; 11 to 30%),2 (Growth inhibition rate; 31 to 50%)
CSc1ccccc1Oc1nnc(Cl)cc1O [Example 129],–,–,–,–,–,–,–,–,–,–,1 (Growth inhibition rate; 11 to 30%),2 (Growth inhibition rate; 31 to 50%),4 (Growth inhibition rate; 71 to 90%),5 (Growth inhibition rate; 91 to 100%),5 (Growth inhibition rate; 91 to 100%),5 (Growth inhibition rate; 91 to 100%),3 (Growth inhibition rate; 51 to 70%),4 (Growth inhibition rate; 71 to 90%),0 (Growth inhibition rate; 0 to 10%),0 (Growth inhibition rate; 0 to 10%)
CSc1c(C)cc(C)cc1Oc1nnc(Cl)cc1O [Example 289],–,–,–,–,–,–,–,–,–,–,0 (Growth inhibition rate; 0 to 10%),0 (Growth inhibition rate; 0 to 10%),4 (Growth inhibition rate; 71 to 90%),5 (Growth inhibition rate; 91 to 100%),4 (Growth inhibition rate; 71 to 90%),5 (Growth inhibition rate; 91 to 100%),4 (Growth inhibition rate; 71 to 90%),5 (Growth inhibition rate; 91 to 100%),0 (Growth inhibition rate; 0 to 10%),0 (Growth inhibition rate; 0 to 10%)
